Results published in ChEMBL document CHEMBL1255377, “Synergy of human immunodeficiency virus protease inhibitors with chloroquine against Plasmodium falciparum in vitro and Plasmodium chabaudi in vivo” (Antimicrob Agents Chemother, 2008).
Active and inactive are the calls of the source. The calls are words filed in the database; no cut-off is given here.

Key:
Assay type in all cases: functional, organism-based
[1] = system: Plasmodium falciparum; assay: Antimicrobial activity against chloroquine-resistant Plasmodium falciparum Dd2 infected in human erythrocytes assessed as potentiation of choloroquine-mediated antimalarial activity by light microscopy
[2] = system: Plasmodium falciparum; assay: Antimicrobial activity against chloroquine-resistant Plasmodium falciparum 3D7 infected in human erythrocytes assessed as potentiation of choloroquine-mediated antimalarial activity by light microscopy
[3] = system: Plasmodium chabaudi; assay: Antimicrobial activity against chloroquine-resistant Plasmodium chabaudi ASCQ infected in NIH mice (Mus musculus) assessed as potentiation of 2.5 mg/kg chloroquine-mediated antimalarial activity at 100 mg/kg, perorally administered after 72 hrs post inoculation measured on day 4 post infection
[4] = system: Plasmodium chabaudi; assay: Antimicrobial activity against chloroquine-resistant Plasmodium chabaudi ASCQ infected in NIH mice (Mus musculus) at 10 to 160 mg/kg, perorally administered after 72 hrs post inoculation measured on day 4 post infection
[5] = system: Plasmodium chabaudi; assay: Antimicrobial activity against chloroquine-resistant Plasmodium chabaudi ASCQ infected in NIH mice (Mus musculus) assessed as potentiation of 2.5 mg/kg chloroquine-mediated antimalarial activity at 10 to 160 mg/kg, perorally administered after 72 hrs post inoculation measured on day 4 post infection
[6] = system: Plasmodium chabaudi; assay: Antimicrobial activity against chloroquine-sensitive Plasmodium chabaudi ASS infected in NIH mice (Mus musculus) assessed as potentiation of 2.5 mg/kg chloroquine-mediated antimalarial activity at 100 mg/kg, perorally administered after 72 hrs post inoculation measured on day 4 post infection
[7] = system: Plasmodium chabaudi; assay: Antimicrobial activity against chloroquine-resistant Plasmodium chabaudi ASCQ infected in NIH mice (Mus musculus) at 2.5 mg/kg, perorally administered after 72 hrs post inoculation measured on day 4 post infection; design: dose 2.5 mg/kg

Row | Compound | Activity [1] | Activity [2] | Activity [3] | Activity [4] | Activity [5] | Activity [6] | Activity [7]
1 | CC(C)(C)NC(=O)[C@@H]1C[C@@H]2CCCC[C@@H]2CN1C[C@@H](O)[C@H](Cc1ccccc1)NC(=O)[C@H](CC(N)=O)NC(=O)c1ccc2ccccc2n1 | Active | Active | Active | – | – | – | –
2 | Cc1c(O)cccc1C(=O)N[C@@H](CSc1ccccc1)[C@H](O)CN1C[C@H]2CCCC[C@H]2C[C@H]1C(=O)NC(C)(C)C | Active | Active | Active | – | – | – | –
3 | Cc1cccc(C)c1OCC(=O)N[C@@H](Cc1ccccc1)[C@@H](O)C[C@H](Cc1ccccc1)NC(=O)[C@H](C(C)C)N1CCCNC1=O | Active | Active | inactive | – | – | – | –
4 | CC(C)c1nc(CN(C)C(=O)N[C@H](C(=O)N[C@@H](Cc2ccccc2)C[C@H](O)[C@H](Cc2ccccc2)NC(=O)OCc2cncs2)C(C)C)cs1 | Active | Active | Active | Active | Active | Active | –
5 | COC(=O)N[C@H](C(=O)N[C@@H](Cc1ccccc1)[C@@H](O)CN(Cc1ccc(-c2ccccn2)cc1)NC(=O)[C@@H](NC(=O)OC)C(C)(C)C)C(C)(C)C | Active | Active | Active | – | – | – | –
6 | CCN(CC)CCCC(C)Nc1ccnc2cc(Cl)ccc12 (centres undefined) | – | – | – | – | – | – | inactive
